Data on 29 compounds can be found in patent US5891909A, “Amidinohydrazones as protease inhibitors” (3-Dimensional Pharmaceuticals, Inc., priority 1997, dated 1999).

For the experiment, the target named is T1, human α-thrombin (Homo sapiens, UniProt P00734).
T1 construct: Human α-thrombin, human factor Xa and human plasmin were obtained from Enzyme Research Laboratories; purchased Enzyme Research Laboratories (South Bend, Ind.)
Description: Thrombin inhibition, Ki determination (hydrolysis of N-succinyl-Ala-Ala-Pro-Arg-p-nitroanilide). The note with it: Table 1; pH 7.5, 37° C.; read-out: Thrombin Ki. The experiment is classed as biochemical. An excerpt:
All buffer salts were obtained from Sigma Chemical Company (St. Louis, Mo.), and were of the highest purity available. The enzyme substrates, N-benzoyl-Phe-Val-Arg-p-nitroanilide (Sigma B7632), N-benzoyl-Ile-Glu-Gly-Arg-p-nitroanilide hydrochloride (Sigma B2291), N-p-Tosyl-Gly-Pro-Lys-p-nitroanilide (Sigma T6140), N-succinyl-Ala-Ala-Pro-Phe-p-nitroanilide (Sigma S7388) and N-CBZ-Val-Gly-Arg-p-nitroanilide (Sigma C7271) were obtained from Sigma.
Human α-thrombin, human factor Xa and human plasmin were obtained from Enzyme Research Laboratories (South Bend, Ind.). Bovine α-chymotrypsin (Sigma C4129), bovine trypsin (Sigma T8642) and human kidney cell urokinase (Sigma U5004) were obtained from Sigma. Human leukocyte elastase was obtained from Elastin Products (Pacific, Mo.).
All assays are based on the ability of the test compound to inhibit the enzyme catalyzed hydrolysis of a peptide p-nitroanilide substrate. […] The final concentrations for each of the substrates is listed below. In general, substrate concentrations are lower than the experimentally determined value for Km. Test compounds are prepared as a 1.0 mg/ml solution in DMSO. Dilutions are prepared in DMSO yielding 8 final concentrations encompassing a 200 fold concentration range. Enzyme solutions are prepared at the concentrations listed below in assay buffer.
Data corresponding to less than 10% of the total substrate hydrolysis were used in the calculations. The ratio of the velocity (rate of change in absorbance as a function of time) for a sample containing no test compound is divided by the velocity of a sample containing test compound, and is plotted as a function of test compound concentration. The data are fit to a linear regression, and the value of the slope of the line calculated. The inverse of the slope is the experimentally determined Ki value.
Thrombin activity was assessed as the ability to hydrolyze the substrate N-succinyl-Ala-Ala-Pro-Arg-p-nitroanilide.

Counter-ions that a name gives are not always drawn.

On to `COc1cc(CCCC=NNC(=N)N)cc(OS(=O)(=O)c2ccccc2Cl)c1` [Example 4, 2-[3-[3-(2-chlorophenylsulfonyloxy)-5-methoxyphenyl]propyl-1-methylene]hydrazinecarboximidamide hydrochloride], for which the Ki (in general, the dissociation constant of the complex between target and ligand, obtained from inhibition or displacement) was determined as 1270 nM. For the compound `Cc1cc(OCCC=NNC(=N)N)cc(OS(=O)(=O)c2ccccc2OC(F)(F)F)c1` [Example 10, 2-[2-[5-Methyl-3-(2-trifluoromethoxyphenylsulfonyloxy)phenoxy]ethyl-1-methylene]hydrazinecarboximidamide nitrate], the Ki is 17.2 nM.

For `COc1ccc(Cl)cc1S(=O)(=O)Oc1cc(C)cc(OCCC=NNC(=N)N)c1` [Example 18, 2-[2-[3-(5-Chloro-2-methoxyphenylsulfonyloxy)-5-methylphenoxy]ethyl-1-methylene]hydrazinecarboximidamide hydrochloride], the Ki was 4.7 nM. With `Cc1cc(OCCC=NNC(=N)N)cc(OS(=O)(=O)c2c(C)nn(C)c2Cl)c1` [Example 20, 2-[2-[3-(5-chloro-1,3-dimethylpyrazole-4-sulfonyloxy)-5-methylphenoxy]ethyl-1-methylene]hydrazinecarboximidamide acetate] the figure was 76.2 nM. As for `Cc1cc(OCCC=NNC(=N)N)cc(OS(=O)(=O)c2cc(C)ccc2C#N)c1` [Example 30, 2-[2-[3-(2-Cyano-5-methylphenylsulfonyloxy)-5-methylphenoxy]ethyl-1-methylene]hydrazinecarboximidamide nitrate], the Ki worked out at 33.4 nM. In the case of `Cc1cc(OCCC=NNC(=N)N)cc(OS(=O)(=O)c2cc(C)ccc2C)c1` [Example 17, 2-[2-[3-(2,5-Dimethylphenylsulfonyloxy)-5-methylphenoxy]ethyl-1-methylene]hydrazinecarboximidamide nitrate] it was 6.2 nM; in that of `Cc1cc(OCCC=NNC(=N)N)cc(OS(=O)(=O)c2cccc3nsnc23)c1` [Example 11, 2-[2-[3-(Benzo-2,1,3-thiadiazole-4-sulfonyloxy)-5-methylphenoxy]ethyl-1-methylene]hydrazinecarboximidamide nitrate], 29.6 nM; in that of `Cc1cc(OCCC=NNC(=N)N)cc(OS(=O)(=O)c2cccc3ccccc23)c1` [Example 25, 2-[2-[5-Methyl-3-(1-naphthalenylsulfonyloxy)phenoxy]ethyl-1-methylene]hydrazinecarboximidamide nitrate], 63.2 nM. In the case of `Cc1cc(OCC2(C=NNC(=N)N)CC2)cc(OS(=O)(=O)c2ccccc2C#N)c1` [Example 39, 2-[[1-[3-(2-Cyanophenylsulfonyloxy)-5-methylphenoxy]-methyl]cyclopropyl-1-methylene]hydrazinecarboximidamide acetate] it was 52 nM; in that of `Cc1cc(OCCC=NNC(=N)N)cc(OS(=O)(=O)c2cccc(C#N)c2)c1` [Example 36, 2-[2-[3-(3-Cyanophenylsulfonyloxy)-5-methylphenoxy]ethyl-1-methylene]hydrazinecarboximidamide nitrate], 68 nM; in that of `CCOC(=O)CCCCCN(c1cc(C)cc(OCCC=NNC(=N)N)c1)S(=O)(=O)c1ccccc1C(F)(F)F` [Example 5, 2-[2-[(5-methyl-3-(N-(5-ethoxycarbonylpentyl)-N-(2-trifluoromethylphenylsulfonyl)amino)phenoxy]ethyl-1-methylene]hydrazinecarboximidamide nitrate], 26.4 nM. Consider `Cc1cc(OCCC=NNC(=N)N)cc(OS(=O)(=O)c2cccc(Cl)c2)c1` [Example 21, 2-[2-[3-(3-Chlorophenylsulfonyloxy)-5-methylphenoxy]ethyl-1-methylene]hydrazinecarboximidamide nitrate], for which the inhibitory constant (Ki) worked out at 3.6 nM. In the case of `Cc1cc(OCCC=NNC(=N)N)cc(OS(=O)(=O)c2cc(C(F)(F)F)ccc2Cl)c1` [Example 26, 2-[2-[3-(2-Chloro-5-trifluoromethylphenylsulfonyloxy)-5-methylphenoxy]ethyl-1-methylene]hydrazinecarboximidamide nitrate] it was 1540 nM; in that of `Cc1cc(OCCC=NNC(=N)N)cc(OS(=O)(=O)c2cccc(C)c2)c1` [Example 12, 2-[2-[5-Methyl-3-(3-methylphenylsulfonyloxy)phenoxy]ethyl-1-methylene]hydrazinecarboximidamide nitrate], 8.9 nM; in that of `COc1ccccc1S(=O)(=O)Oc1cc(C)cc(OCCCC=NNC(=N)N)c1` [Example 23, 2-[3-[3-(2-Methoxyphenylsulfonyloxy)-5-methylphenoxy]propyl-1-methylene]hydrazinecarboximidamide nitrate], 1670 nM.

`Cc1cc(OCCC=NNC(=N)N)cc(OS(=O)(=O)c2cc([N+](=O)[O-])ccc2C)c1` [Example 22, 2-[2-[5-Methyl-3-(2-methyl-5-nitrophenylsulfonyloxy)phenoxy]ethyl-1-methylene]hydrazinecarboximidamide nitrate]: the Ki came to 63.6 nM. In the case of `COc1ccccc1S(=O)(=O)Oc1cc(C)cc(OCCC=NNC(=N)N)c1` [Example 8, 2-[2-[3-(2-Methoxyphenylsulfonyloxy)-5-methylphenoxy]ethyl-1-methylene]hydrazinecarboximidamide acetate] it was 6.4 nM. With `Cc1cc(OCCC=NNC(=N)N)cc(OS(=O)(=O)c2ccccc2C#N)c1` [Example 13, 2-[2-[3-(2-Cyanophenylsulfonyloxy)-5-methylphenoxy]ethyl-1-methylene]hydrazinecarboximidamide hydrochloride] the figure was 14 nM. `Cc1cc(OCCC=NNC(=N)N)cc(OS(=O)(=O)c2cc(Cl)ccc2Cl)c1` [Example 7, 2-[2-[3-(2,5-Dichlorophenylsulfonyloxy)-5-methylphenoxy]ethyl-1-methylene]hydrazinecarboximidamide nitrate]: the Ki stood at 14.9 nM. With `COc1ccc(C)cc1S(=O)(=O)Oc1cc(C)cc(OCCC=NNC(=N)N)c1` [Example 14, 2-[2-[3-(2-Methoxy-5-methylphenylsulfonyloxy)-5-methylphenoxy]ethyl-1-methylene]hydrazinecarboximidamide nitrate] the figure was 47.5 nM. In the case of `COc1ccc(Cl)cc1S(=O)(=O)Oc1cc(C)cc(OCCC=NNC(=N)NN)c1` [Example 27, 2-Amino-[2-[2-[3-(5-chloro-2-methoxyphenylsulfonyloxy)-5-methylphenoxy]ethyl-1-methylene]hydrazine]carboximidamine acetate] it was 298 nM; in that of `Cc1cc(OCCC=NNC(=N)N)cc(OS(=O)(=O)c2cccc3cnccc23)c1` [Example 32, 2-[2-[3-(5-Isoquinolinylsulfonyloxy)-5-methylphenoxy]ethyl-1-methylene]hydrazinecarboximidamide nitrate], 24.9 nM. With `Cc1cc(OCCC=NNC(=N)N)cc(OS(=O)(=O)c2cccnc2)c1` [Example 34, 2-[2-[5-methyl-3-(3-pyridinylsulfonyloxy)phenoxy]ethyl-1-methylene]hydrazinecarboximidamide diacetate] the figure was 56 nM. As for `COc1ccc(Cl)cc1S(=O)(=O)Oc1cc(C)cc(OCCC=NN(N)C(=N)N)c1` [Example 28, 1-Amino-2-[2-[3-(5-chloro-2-methoxyphenylsulfonyloxy)-5-methylphenoxy]ethyl-1-methylene]hydrazinecarboximidamine acetate], the Ki came to 186 nM. In the case of `Cc1cc(OCCC=NNC(=N)N)cc(OS(=O)(=O)c2cccc(F)c2)c1` [Example 35, 2-[2-[3-(3-Fluorophenylsulfonyloxy)-5-methylphenoxy]ethyl-1-methylene]hydrazinecarboximidamide nitrate] it was 31 nM. With `Cc1cc(OCCC=NNC(=N)N)cc(OCc2ccccc2C(F)(F)F)c1` [Example 3, 2-[2-[5-methyl-3-(2-trifluoromethylbenzyloxy)phenoxy]ethyl-1-methylene]hydrazinecarboximidamide nitrate] the figure was 465 nM; with `COc1ccc(OC)c(S(=O)(=O)Oc2cc(C)cc(OCCC=NNC(=N)N)c2)c1` [Example 16, 2-[2-[3-(2,5-Dimethoxyphenylsulfonyloxy)-5-methylphenoxy]ethyl-1-methylene]hydrazinecarboximidamide nitrate], 21.3 nM; with `COc1ccc(Br)cc1S(=O)(=O)Oc1cc(C)cc(OCCC=NNC(=N)N)c1` [Example 9, 2-[2-[3-(5-Bromo-2-methoxyphenylsulfonyloxy)-5-methylphenoxy]ethyl-1-methylene]hydrazinecarboximidamide nitrate], 9.4 nM. In the case of `Cc1cc(OCCC=NNC(=N)N)cc(N(CCCCc2ccccc2)S(=O)(=O)c2ccccc2C(F)(F)F)c1` [Example 31, 2-[2-[(3-Methyl-5-(N-(4-phenylbutyl)-N-(2-trifluoromethylphenylsulfonyl))amino)phenoxy]ethyl-1-methylene]hydrazinecarboximidamide acetate] it was 69.2 nM.
